Data from ChEMBL document CHEMBL1201862, “PubChem BioAssay data set” (2004).
Calls of active or inactive are those of the source.

Legend:
[1] = molecular target: T1, Mannose-6-phosphate isomerase (Homo sapiens, UniProt P34949); assay: MPI inhibition at elevated mannose 6-phosphate – biochemical, fluorescence intensity, high mannose 6-phosphate, primary screen (AID 1220)
T1 sequence (P34949 whole entry): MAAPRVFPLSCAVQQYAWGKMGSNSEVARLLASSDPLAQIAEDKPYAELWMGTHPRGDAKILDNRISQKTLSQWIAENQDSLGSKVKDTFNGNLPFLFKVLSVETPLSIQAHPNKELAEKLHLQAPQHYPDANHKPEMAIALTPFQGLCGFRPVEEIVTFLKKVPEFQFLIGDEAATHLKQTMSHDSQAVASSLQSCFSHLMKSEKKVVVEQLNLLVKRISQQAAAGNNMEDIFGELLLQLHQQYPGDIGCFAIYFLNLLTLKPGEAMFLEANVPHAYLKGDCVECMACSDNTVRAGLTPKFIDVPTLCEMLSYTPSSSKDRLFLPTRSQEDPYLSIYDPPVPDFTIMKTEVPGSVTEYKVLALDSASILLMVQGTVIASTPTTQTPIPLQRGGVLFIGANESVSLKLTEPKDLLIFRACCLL

[2] = molecular target: T1, Mannose-6-phosphate isomerase; assay: MPI enzyme activity inhibition – biochemical, fluorescence intensity, coupled assay, primary screen (AID 1209)
Estrogen receptor beta [3] = molecular target: T2, Estrogen receptor beta (Homo sapiens, UniProt Q92731); assay: blockers of SRC-3 recruitment to ERβ – biochemical, ELISA, streptavidin-HRP readout, orthogonal assay, confirmation (AID 1060)
Estrogen receptor beta [4] = molecular target: T2, Estrogen receptor beta
Estrogen receptor = molecular target: T3, Estrogen receptor (Homo sapiens, UniProt P03372);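 note: potency for inhibiting coactivator peptide recruitment to the receptor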
T3 sequence (P03372 whole entry): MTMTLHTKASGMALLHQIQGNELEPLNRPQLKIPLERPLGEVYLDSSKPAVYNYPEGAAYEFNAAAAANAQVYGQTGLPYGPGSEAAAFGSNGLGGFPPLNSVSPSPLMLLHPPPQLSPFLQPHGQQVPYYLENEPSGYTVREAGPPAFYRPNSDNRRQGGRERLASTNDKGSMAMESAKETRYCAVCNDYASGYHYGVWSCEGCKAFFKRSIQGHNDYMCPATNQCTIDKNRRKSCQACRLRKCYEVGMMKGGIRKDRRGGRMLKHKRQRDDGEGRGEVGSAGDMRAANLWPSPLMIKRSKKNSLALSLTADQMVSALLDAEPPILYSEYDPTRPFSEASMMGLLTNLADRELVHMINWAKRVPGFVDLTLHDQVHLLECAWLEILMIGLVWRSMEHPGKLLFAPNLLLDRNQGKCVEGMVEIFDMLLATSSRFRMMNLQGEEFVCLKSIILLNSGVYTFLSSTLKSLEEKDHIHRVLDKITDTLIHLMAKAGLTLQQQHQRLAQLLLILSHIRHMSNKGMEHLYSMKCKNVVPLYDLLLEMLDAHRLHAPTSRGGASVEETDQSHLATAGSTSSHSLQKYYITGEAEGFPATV

[5] = molecular target: T4, Eukaryotic translation initiation factor 2-alpha kinase 3 (Homo sapiens, UniProt Q9NZJ5); assay: Counterscreen assay for PERK inhibitors: Dose response cell-based high throughput screening assay to measure inhibition of PERK at 6 hours. [Related pubchem assays: 1522, 1416 ]; assay type: functional
T4 sequence (Q9NZJ5 whole entry): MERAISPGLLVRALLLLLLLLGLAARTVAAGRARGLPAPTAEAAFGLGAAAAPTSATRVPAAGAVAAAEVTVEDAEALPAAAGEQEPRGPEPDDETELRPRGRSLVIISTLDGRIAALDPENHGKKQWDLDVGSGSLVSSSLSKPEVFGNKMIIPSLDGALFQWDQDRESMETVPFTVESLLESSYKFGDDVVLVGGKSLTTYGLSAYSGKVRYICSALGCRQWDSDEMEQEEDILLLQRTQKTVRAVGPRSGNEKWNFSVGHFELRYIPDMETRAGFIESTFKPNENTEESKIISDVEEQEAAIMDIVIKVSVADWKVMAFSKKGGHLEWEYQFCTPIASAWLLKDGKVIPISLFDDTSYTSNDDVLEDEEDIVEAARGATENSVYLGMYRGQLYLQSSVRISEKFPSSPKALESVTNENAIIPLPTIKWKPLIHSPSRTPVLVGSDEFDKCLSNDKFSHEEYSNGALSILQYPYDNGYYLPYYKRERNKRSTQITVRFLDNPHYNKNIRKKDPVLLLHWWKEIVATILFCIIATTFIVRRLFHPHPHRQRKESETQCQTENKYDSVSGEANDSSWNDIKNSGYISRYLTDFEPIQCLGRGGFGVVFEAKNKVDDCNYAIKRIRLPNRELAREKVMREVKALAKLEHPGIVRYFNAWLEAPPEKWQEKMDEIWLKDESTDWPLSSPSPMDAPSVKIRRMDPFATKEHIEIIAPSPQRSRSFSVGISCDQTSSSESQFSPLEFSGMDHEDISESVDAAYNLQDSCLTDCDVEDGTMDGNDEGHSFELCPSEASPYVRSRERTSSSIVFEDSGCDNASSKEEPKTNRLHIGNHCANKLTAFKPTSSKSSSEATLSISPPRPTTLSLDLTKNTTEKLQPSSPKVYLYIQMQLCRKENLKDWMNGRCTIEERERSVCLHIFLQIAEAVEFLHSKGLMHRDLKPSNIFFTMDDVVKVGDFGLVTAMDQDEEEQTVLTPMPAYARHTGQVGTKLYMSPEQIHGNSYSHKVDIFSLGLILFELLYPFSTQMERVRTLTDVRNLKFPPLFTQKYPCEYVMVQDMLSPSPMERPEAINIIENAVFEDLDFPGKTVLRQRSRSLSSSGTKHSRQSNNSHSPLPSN

[6] = molecular target: T4, Eukaryotic translation initiation factor 2-alpha kinase 3; assay: Dose response cell-based high-throughput screening assay to measure PERK inhibition. [Related pubchem assays: 1416 ]; assay type: functional
[7] = A Cell Based Secondary Assay To Explore Cytotoxicity of Compounds that Sensitize Mycobacterium Tuberculosis to Beta-Lactam Antibiotics.; assay type: functional
[8] = molecular target: T5, Rac GTPase-activating protein 1 (Homo sapiens, UniProt Q9H0H5); assay: blockers of MgcRacGAP-driven Rac1 GTP hydrolysis – biochemical, ADP Hunter fluorescence, primary and confirmatory, confirmation (AID 624330); assay type: functional
T5 sequence (Q9H0H5 whole entry): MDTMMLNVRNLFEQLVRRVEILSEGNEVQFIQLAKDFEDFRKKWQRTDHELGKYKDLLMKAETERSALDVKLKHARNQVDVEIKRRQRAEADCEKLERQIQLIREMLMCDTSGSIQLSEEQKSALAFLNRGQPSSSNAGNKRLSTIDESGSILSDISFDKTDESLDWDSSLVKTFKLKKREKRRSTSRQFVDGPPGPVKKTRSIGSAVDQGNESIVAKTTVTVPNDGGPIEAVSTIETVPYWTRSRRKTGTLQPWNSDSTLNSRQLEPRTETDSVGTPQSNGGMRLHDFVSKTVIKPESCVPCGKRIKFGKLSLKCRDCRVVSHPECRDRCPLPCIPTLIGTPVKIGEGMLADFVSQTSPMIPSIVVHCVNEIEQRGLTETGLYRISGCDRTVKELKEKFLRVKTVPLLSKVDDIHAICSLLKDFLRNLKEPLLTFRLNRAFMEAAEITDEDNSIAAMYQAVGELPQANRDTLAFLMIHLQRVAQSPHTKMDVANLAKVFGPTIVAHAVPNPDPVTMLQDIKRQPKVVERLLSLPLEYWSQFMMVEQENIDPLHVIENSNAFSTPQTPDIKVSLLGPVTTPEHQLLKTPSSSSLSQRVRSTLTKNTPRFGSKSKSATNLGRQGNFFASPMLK

[9] = mRNA 3' processing disruption, beta-gal signal increase – luminescence, S. cerevisiae SKY197-pL101, dose response (AID 2525); assay type: functional, cell-based
[10] = Luminescence Cell-Based Dose Confirmation HTS to Identify Inhibitors of Polyadenylation.; assay type: functional
Bcl-2-related protein A1 [11] = molecular target: T6, Bcl-2-related protein A1 (Mus musculus, UniProt Q07440); assay: displacement of Bid BH3 peptide from Bfl-1 – biochemical, fluorescence polarization, FITC-Bid, mouse, primary screen (AID 432)
T6 sequence (Q07440 whole entry): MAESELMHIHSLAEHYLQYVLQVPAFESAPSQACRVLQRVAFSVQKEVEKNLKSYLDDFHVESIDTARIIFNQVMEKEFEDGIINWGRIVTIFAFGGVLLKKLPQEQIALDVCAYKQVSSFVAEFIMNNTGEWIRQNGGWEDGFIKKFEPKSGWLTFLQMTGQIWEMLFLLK

Bcl-2-related protein A1 [12] = molecular target: T6, Bcl-2-related protein A1; assay: small-molecule antagonists of Bfl-1/BH3 interaction – biochemical, TR-FRET, mouse Bfl-1, confirmation (AID 621);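 note: TR-FRET binding of GST-Bfl-1 to FITC-labelled Bid peptide via terbium antibody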
[13] = HPDE-C7 pancreatic duct cell viability loss – fluorescence, HTS (AID 430); assay type: functional, cell-based; conditions: Homo sapiens
[14] = viability loss of HPDE-C7K cells – cell-based, fluorescence, HTS, primary screen (AID 431); assay type: functional; conditions: Homo sapiens
Bcl-2-related protein A1 [15] = molecular target: T6, Bcl-2-related protein A1; assay: Bfl-1 binding inhibitors, SAR follow-up, biochemical, fluorescence polarization (AID 1070)
[16] = molecular target: Glyceraldehyde-3-phosphate dehydrogenase (Homo sapiens, UniProt P04406)
[17] = molecular target: T7, High affinity choline transporter 1 (Homo sapiens, UniProt Q9GZV3); assay: human choline transporter blockers, potency – cell-based, 10-point CRC, membrane potential dye, dose response (AID 588401); assay type: functional;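 note: membrane potential dye fluorescence of choline-evoked depolarization via CHT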
T7 sequence (Q9GZV3 whole entry): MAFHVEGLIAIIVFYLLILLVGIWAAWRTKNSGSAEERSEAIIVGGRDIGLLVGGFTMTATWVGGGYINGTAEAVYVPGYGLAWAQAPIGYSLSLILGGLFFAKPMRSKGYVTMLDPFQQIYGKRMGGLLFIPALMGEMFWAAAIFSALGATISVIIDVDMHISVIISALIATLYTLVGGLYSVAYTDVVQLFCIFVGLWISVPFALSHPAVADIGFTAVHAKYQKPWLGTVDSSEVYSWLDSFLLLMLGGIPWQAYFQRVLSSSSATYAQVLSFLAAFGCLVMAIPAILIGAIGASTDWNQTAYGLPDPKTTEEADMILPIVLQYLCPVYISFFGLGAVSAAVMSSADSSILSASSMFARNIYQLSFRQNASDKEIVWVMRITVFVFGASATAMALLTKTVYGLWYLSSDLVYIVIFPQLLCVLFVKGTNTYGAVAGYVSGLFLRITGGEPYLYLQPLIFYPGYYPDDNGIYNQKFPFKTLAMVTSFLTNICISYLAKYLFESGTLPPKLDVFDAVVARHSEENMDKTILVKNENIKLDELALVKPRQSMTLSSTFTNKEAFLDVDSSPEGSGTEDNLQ

[18] = molecular target: Transitional endoplasmic reticulum ATPase (Homo sapiens, UniProt P55072); assay: p97 ATPase inhibitors, dose response, biochemical (AID 1534)
[19] = viability of uninfected HEp-2 cells – cell-based, HTS, cytotoxicity control for RSV inhibitor project, dose response (AID 2410); assay type: functional; conditions: human respiratory syncytial virus
[20] = molecular target: Transitional endoplasmic reticulum ATPase (Homo sapiens, UniProt P55072, C522A); assay: C522A mutant p97 ATPase inhibitors, dose response, counter-screen for p97 inhibitor project, biochemical, luminescence (AID 1544)
[21] = molecular target: T7, High affinity choline transporter 1; assay: human choline transporter blockers, potency – cell-based, 5-point CRC, membrane potential dye, dose response (AID 504840); assay type: functional

T2 sequence (Q92731 whole entry): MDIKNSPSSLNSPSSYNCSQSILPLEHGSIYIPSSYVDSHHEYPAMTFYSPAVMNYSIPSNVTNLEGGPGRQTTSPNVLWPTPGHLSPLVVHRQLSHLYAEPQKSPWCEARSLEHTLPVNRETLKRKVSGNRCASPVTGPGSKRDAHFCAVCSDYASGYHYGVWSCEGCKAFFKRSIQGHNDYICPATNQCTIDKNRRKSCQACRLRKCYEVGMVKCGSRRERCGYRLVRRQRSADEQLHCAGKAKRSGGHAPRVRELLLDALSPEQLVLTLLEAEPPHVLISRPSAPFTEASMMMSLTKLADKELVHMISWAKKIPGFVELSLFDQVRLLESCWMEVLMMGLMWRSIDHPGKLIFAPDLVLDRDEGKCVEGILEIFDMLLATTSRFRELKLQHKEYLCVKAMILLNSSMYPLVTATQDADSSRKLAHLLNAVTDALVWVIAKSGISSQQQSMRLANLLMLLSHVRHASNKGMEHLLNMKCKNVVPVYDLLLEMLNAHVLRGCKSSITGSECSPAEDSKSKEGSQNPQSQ
Transitional endoplasmic reticulum ATPase (Homo sapiens, UniProt P55072, C522A), sequence (P55072 2-806 C522A limits assumed): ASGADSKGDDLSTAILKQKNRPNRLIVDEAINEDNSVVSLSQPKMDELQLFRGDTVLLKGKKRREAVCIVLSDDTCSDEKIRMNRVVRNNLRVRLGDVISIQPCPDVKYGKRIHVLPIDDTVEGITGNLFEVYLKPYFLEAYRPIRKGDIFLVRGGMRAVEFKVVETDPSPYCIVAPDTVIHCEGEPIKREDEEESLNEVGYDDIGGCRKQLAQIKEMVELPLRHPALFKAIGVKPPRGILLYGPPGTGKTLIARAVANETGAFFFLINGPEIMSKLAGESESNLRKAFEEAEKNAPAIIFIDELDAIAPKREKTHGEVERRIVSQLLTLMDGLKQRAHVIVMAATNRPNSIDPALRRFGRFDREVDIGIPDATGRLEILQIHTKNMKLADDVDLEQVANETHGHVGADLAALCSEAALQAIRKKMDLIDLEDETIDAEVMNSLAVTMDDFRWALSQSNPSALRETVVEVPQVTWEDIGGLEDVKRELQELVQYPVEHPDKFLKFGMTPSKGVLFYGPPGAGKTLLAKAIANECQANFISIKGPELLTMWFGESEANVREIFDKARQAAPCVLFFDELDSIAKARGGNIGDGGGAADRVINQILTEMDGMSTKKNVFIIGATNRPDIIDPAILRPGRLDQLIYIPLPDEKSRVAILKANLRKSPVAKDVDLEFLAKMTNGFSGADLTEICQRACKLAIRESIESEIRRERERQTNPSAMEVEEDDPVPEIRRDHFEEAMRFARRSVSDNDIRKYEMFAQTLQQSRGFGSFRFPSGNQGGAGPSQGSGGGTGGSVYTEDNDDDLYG
Transitional endoplasmic reticulum ATPase (Homo sapiens, UniProt P55072), sequence (P55072 whole entry): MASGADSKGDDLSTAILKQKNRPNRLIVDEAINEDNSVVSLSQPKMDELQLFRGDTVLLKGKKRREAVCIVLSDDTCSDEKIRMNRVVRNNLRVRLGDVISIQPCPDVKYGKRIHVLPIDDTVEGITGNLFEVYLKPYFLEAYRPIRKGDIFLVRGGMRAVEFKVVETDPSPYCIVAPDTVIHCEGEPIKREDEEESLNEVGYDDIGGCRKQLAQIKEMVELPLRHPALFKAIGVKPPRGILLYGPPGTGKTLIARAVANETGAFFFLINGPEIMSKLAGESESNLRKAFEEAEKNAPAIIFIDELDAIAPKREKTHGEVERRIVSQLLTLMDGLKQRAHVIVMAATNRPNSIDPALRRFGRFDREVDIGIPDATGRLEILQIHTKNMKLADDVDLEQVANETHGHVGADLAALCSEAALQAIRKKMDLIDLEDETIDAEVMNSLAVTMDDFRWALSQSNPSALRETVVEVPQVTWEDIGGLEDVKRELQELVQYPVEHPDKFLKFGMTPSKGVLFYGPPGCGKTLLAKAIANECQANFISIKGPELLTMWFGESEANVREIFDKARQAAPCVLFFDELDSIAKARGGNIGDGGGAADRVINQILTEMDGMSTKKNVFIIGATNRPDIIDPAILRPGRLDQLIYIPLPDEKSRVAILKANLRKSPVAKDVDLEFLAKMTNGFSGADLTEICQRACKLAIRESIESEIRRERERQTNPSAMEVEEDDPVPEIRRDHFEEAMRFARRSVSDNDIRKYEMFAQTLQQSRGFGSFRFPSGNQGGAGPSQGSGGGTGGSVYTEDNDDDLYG
Glyceraldehyde-3-phosphate dehydrogenase, sequence (P04406 whole entry): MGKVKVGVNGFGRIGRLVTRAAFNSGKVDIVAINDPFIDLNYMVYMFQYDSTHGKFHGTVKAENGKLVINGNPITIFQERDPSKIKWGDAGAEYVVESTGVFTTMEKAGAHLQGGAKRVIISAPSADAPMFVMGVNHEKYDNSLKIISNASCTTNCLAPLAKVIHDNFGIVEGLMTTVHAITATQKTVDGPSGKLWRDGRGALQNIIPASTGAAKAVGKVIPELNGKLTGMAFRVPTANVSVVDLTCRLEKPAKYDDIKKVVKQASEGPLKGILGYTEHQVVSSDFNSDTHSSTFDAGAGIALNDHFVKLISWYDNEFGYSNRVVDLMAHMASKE

What does the source list for `Cc1ccc(-n2c(N)c(C(N)=O)sc2=S)c(C)c1`?
IC50 [1]: > 50 µM (not active); IC50 [2]: > 50 µM (not active)

With `O=C(CSc1nnc(-c2ccc(OC(F)F)cc2)o1)NC(=O)NCc1ccco1` as the compound, how does the IC50 (Estrogen receptor beta [3]) read?
Its IC50 is > 109 µM (not active).

What about the IC50 (Estrogen receptor beta [4]) of the same compound?
The IC50 was 15.9 µM (active).

What about the IC50 (Estrogen receptor) of the same compound?
Its IC50 is 11.6 µM (active).

What does the source list for `CC(=O)c1cc2c(cc1N)OCO2`?
EC50 [5]: > 55.7 µM (not active); EC50 [6]: > 55.7 µM (not active)

Which CC50 [7] does the source give for `CCN(CC)c1ccc(NC(=O)c2cc(Cl)ccc2OC)cc1` here?
Its CC50 is > 40 µM (active).

For `CC(=O)Oc1ccc2c(=O)c(Oc3ccccc3)coc2c1OC(C)=O`, which IC50 [8] is on record?
The IC50 was 108 µM (active).

What about the IC50 [2] of the same compound?
Its IC50 is > 50 µM (not active).

For `Cc1ccc(-c2nn3c(C)nnc3s2)cc1NC(=O)CSc1ccc(Cl)cc1`, which EC50 [9] is on record?
The EC50 was 3.08 µM (active).

And the EC50 [10]?
The EC50 was 24.7 µM (active).

With `Cc1cccc(-n2nc([N+](=O)[O-])c(NC3CCN(Cc4ccccc4)CC3)[n+]2[O-])c1` as the compound, how does the CC50 [7] read?
Its CC50 is > 40 µM (active).

With `COc1ccc2c3c(cccc13)NN=C2C` as the compound, how does the IC50 (Bcl-2-related protein A1 [11]) read?
Its IC50 is 5.44 µM (active).

What about the IC50 (Bcl-2-related protein A1 [12]) of the same compound?
Its IC50 is > 100 µM (not active).

And the EC50 [13]?
Its EC50 is 13 µM (active).

And the EC50 [14]?
The EC50 was 9.74 µM (active).

What about the IC50 (Bcl-2-related protein A1 [15]) of the same compound?
The IC50 was > 100 µM (not active).

What about the IC50 [16] of the same compound?
Its IC50 is > 100 µM (not active).

Which IC50 [17] does the source give for `CC(=O)Oc1cc2c3c(c1)/C(=C1/SC(=S)NC1=O)C(=O)N3C(C)(C)C=C2C` here?
Its IC50 is 6.48 µM (active).

What about the IC50 [18] of the same compound?
The IC50 was > 50 µM (not active).

What about the IC50 (cells) of the same compound?
Its IC50 is 12.5 µM (active).

What about the CC50 [19] of the same compound?
The CC50 was 14.3 µM (active).

And the IC50 [20]?
Its IC50 is > 50 µM (not active).

And the IC50 [21]?
Its IC50 is 1.21 µM (active).

For `Cc1ccc(Nc2c(-c3ccc(C)o3)nc3ncccn23)cc1`, which EC50 [9] is on record?
The EC50 was > 500 µM (not active).

What about the EC50 [10] of the same compound?
The EC50 was 11.6 µM (active).

Which EC50 [5] does the source give for `COc1ccc(-c2csc(NC(=O)CSc3nc(C)cs3)n2)cc1` here?
Its EC50 is > 55.7 µM (not active).

And the EC50 [6]?
Its EC50 is > 55.7 µM (not active).
